For series [1] the following is noted: Crystal; DTA.
A short description of series [2]: Molar enthalpy of transition or fusion. Particulars: Crystal; DSC.
Series [3] can be described thus: molar enthalpy of vaporization or sublimation. Particulars: 298.15 K, Static calorimetry.

The record followed here is the NIST ThermoML archive (doi:10.1016/j.jct.2007.06.015).

Numbers after ± are expanded uncertainties.

With `N[C@H]1CC[C@H](N)CC1` [trans-1,4-cyclohexanediamine], the Normal melting temperature in series [1] came to 69.0 ± 0.5 °C. Also, in series [2], the “Molar enthalpy of transition or fusion” value is 27 ± 0.7 kJ/mol. Moreover, in series [3] (Crystal), the molar enthalpy came out at 105 ± 1.6 kJ/mol.
Consider `N[C@H]1CC[C@@H](N)CC1` [cis-1,4-cyclohexanediamine], for which the molar enthalpy in series [3] (Liquid) came to 62.2 ± 1.9 kJ/mol.
